From patent publication US20140155384A1, “COMPOUNDS AND METHODS OF TREATING DIABETES” (Medivation Technologies, Inc., priority 2011, published 2014)

Tests used:
[1] = biological target: T1, rat adrenergic α1B receptor (Rattus norvegicus, UniProt P15823); test: Radioligand binding, adrenergic α1B receptor ([3H]Prazosin); settings: Wistar rat liver
T1 construct: rat adrenergic α1B receptor obtained from Wistar Rat liver; from tissue; host or cells: Wistar rat liver
T1 sequence (P15823 1-515): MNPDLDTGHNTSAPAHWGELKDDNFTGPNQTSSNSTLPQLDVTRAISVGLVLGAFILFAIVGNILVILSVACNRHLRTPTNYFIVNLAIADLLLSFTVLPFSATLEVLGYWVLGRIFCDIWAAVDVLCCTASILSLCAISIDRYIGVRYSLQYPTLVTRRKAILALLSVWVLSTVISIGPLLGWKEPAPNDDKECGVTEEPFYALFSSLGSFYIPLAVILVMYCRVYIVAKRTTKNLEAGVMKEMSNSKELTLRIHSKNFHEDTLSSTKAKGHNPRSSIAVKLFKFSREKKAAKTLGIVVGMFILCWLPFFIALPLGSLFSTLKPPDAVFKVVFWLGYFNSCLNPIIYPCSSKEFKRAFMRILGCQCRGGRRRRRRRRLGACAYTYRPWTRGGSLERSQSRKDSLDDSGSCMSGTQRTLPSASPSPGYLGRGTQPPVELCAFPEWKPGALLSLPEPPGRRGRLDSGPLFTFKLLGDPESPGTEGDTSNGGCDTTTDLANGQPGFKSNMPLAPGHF
How it was run: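 Wistar rat liver α1B receptor preparation incubated with 0.25 nM [3H]prazosin and compound for 60 min at 25° C in 50 mM Tris-HCl pH 7.4, 0.5 mM EDTA; nonspecific binding defined with 10 μM phentolamine.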

[2] = biological target: T2, human recombinant adrenergic α2A receptor (Homo sapiens, UniProt P08913); test: Radioligand binding, adrenergic α2A receptor ([3H]MK-912); settings: Sf9 cells, 1 nM [3H]MK-912; for inhibition at 0.03 µM / inhibition at 0.1 µM: read-out: Percentage inhibition of ligand binding, Adrenergic α2A
T2 construct: expressed in transfected cells; host or cells: insect Sf9 cells
T2 sequence (P08913 1-465): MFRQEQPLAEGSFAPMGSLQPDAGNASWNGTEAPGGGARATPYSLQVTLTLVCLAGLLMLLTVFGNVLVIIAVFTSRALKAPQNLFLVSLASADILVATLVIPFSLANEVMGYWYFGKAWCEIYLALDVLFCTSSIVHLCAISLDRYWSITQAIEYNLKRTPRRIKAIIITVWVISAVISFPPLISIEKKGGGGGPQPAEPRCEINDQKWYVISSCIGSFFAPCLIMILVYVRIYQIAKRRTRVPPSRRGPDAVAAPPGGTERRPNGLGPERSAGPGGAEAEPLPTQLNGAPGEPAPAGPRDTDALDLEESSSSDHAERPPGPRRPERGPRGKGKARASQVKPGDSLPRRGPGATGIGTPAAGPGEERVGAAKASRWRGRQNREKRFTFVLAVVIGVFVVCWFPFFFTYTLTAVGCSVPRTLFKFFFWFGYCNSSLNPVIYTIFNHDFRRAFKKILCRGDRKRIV
How it was run: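 Percent inhibition of specific [3H]MK-912 (1 nM) binding measured by filtration counting, compounds tested at ≤1 μM in 1% DMSO. Receptor: human α2A from Sf9 cells; incubation 60 min, 25 °C, pH 7.4; 10 μM WB-4101 defined nonspecific binding.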

[3] = biological target: T3, human recombinant adrenergic α2B receptor (Homo sapiens, UniProt P18089); test: Radioligand binding, adrenergic α2B receptor ([3H]Rauwolscine); settings: CHO-K1 cells; for inhibition at 0.03 µM / inhibition at 0.1 µM: read-out: Percentage inhibition of ligand binding, Adrenergic α2B
T3 construct: expressed in transfected cells; host or cells: CHO-K1
T3 sequence (P18089 1-450): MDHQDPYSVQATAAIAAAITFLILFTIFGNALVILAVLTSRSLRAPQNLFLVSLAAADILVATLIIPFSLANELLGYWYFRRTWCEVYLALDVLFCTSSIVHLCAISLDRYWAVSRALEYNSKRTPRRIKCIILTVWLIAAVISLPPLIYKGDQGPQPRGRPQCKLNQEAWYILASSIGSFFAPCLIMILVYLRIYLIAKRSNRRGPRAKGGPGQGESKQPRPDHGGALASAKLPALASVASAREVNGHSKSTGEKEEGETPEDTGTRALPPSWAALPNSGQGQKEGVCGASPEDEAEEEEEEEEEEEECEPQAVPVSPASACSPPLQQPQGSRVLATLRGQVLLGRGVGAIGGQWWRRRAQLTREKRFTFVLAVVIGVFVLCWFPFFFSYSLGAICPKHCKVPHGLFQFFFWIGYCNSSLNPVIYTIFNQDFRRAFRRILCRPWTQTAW
How it was run: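 Percent inhibition of specific [3H]Rauwolscine (2.5 nM) binding, compounds at ≤1 μM, 1% DMSO vehicle, 10 μM prazosin defining nonspecific. Receptor: human α2B expressed in CHO-K1 cells, 60 min incubation at 25 °C in Tris-HCl pH 7.4 buffer (MgCl2, EDTA, BSA); filtered, washed, counted.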

[4] = 0.1 μM compound, read-out: Percentage inhibition of ligand binding, Adrenergic α1B

inhibition at 0.03 µM ([1]; 0.03 μM compound, read-out: Percentage inhibition of ligand binding, Adrenergic α1B)	Percentage inhibition of ligand binding, Adrenergic α1B ([1]; 0.1 μM compound)	Percentage inhibition of ligand binding, Adrenergic α2A ([2]; 0.03 μM compound)	inhibition at 0.03 µM ([2]; 0.03 μM compound)	Percentage inhibition of ligand binding, Adrenergic α2A ([2]; 0.1 μM compound)	inhibition at 0.1 µM ([2]; 0.1 μM compound)	Percentage inhibition of ligand binding, Adrenergic α2B ([3]; 0.03 μM compound)	inhibition at 0.03 µM ([3]; 0.03 μM compound)	inhibition at 0.1 µM ([3]; 0.1 μM compound)	inhibition at 0.1 µM [1, 4]	Percentage inhibition of ligand binding, Adrenergic α2B ([3]; 0.1 μM compound)	SMILES
46%	73%	96%	87%	96%	92%	102%	100%	95%	–	–	Cc1ccc2c(c1)c1c(n2-c2cscc2-c2ccc3c(ccn3C)c2)CCN(C)C1 [Compound 33]
–	–	–	81%	–	88%	–	104%	96%	77%	104%	COc1ccc(-c2cscc2-n2c3c(c4cc(C)ccc42)CN(C)CC3)cc1 [Compound 37]
–	–	–	76%	–	86%	–	71%	86%	61%	93%	Cc1ccc2c(c1)c1c(n2-c2cscc2-c2ccc3cnccc3c2)CCN(C)C1 [Compound No. 68]
–	–	–	44%	68%	–	–	89%	94%	68%	100%	Cc1ccc2c(c1)c1c(n2-c2cscc2-c2ccc(S(C)(=O)=O)cc2)CCN(C)C1 [Compound No. 76]

Continued, molecule first:

SMILES	inhibition at 0.03 µM ([1]; 0.03 μM compound, read-out: Percentage inhibition of ligand binding, Adrenergic α1B)	Percentage inhibition of ligand binding, Adrenergic α1B ([1]; 0.1 μM compound)	Percentage inhibition of ligand binding, Adrenergic α2A ([2]; 0.03 μM compound)	inhibition at 0.03 µM ([2]; 0.03 μM compound)	Percentage inhibition of ligand binding, Adrenergic α2A ([2]; 0.1 μM compound)	inhibition at 0.1 µM ([2]; 0.1 μM compound)	Percentage inhibition of ligand binding, Adrenergic α2B ([3]; 0.03 μM compound)	inhibition at 0.03 µM ([3]; 0.03 μM compound)	inhibition at 0.1 µM ([3]; 0.1 μM compound)	inhibition at 0.1 µM [1, 4]	Percentage inhibition of ligand binding, Adrenergic α2B ([3]; 0.1 μM compound)
Cc1csc(-c2cscc2-n2c3c(c4cc(C)ccc42)CN(C)CC3)c1 [Compound 50]	–	–	–	82%	–	88%	–	97%	103%	42%	–
Cc1ccc2c(c1)c1c(n2-c2cscc2-c2ccc(C)s2)CCN(C)C1 [Compound No. 79]	–	–	–	82%	–	90%	–	102%	104%	51%	–
Cc1ccc2c(c1)c1c(n2-c2ccccc2-c2ccc3c(ccn3C)c2)CCN(C)C1 [Compound No. 85, 2,8-dimethyl-5-(2-(1-methyl-1H-indol-5-yl)phenyl)-2,3,4,5-tetrahydro-1H-pyrido[4,3-b]indole]	–	–	–	80%	–	89%	–	89%	98%	36%	102%
Cc1ccc2c(c1)c1c(n2-c2ccccc2-c2cccn2C)CCN(C)C1 [Compound No. 100, 2,8-dimethyl-5-(2-(1-methyl-1H-pyrrol-2-yl)phenyl)-2,3,4,5-tetrahydro-1H-pyrido[4,3-b]indole]	–	–	–	74%	–	84%	–	103%	99%	79%	109%
